The values that follow come from PMC4767141, “Discovery of Potent, Orally Bioavailable, Small-Molecule Inhibitors of WNT Signaling from a Cell-Based Pathway Screen” (Journal of Medicinal Chemistry, 2015).

Read-outs that look alike come from different tables or passages of the source.

Data set [1] is described as follows: pKa of the pyridine nitrogen. The format is physicochemical. To be noted: measured at Cyprotex. On the procedure: [32] pKa measurement was conducted at Cyprotex according to their published protocol: .
The target of the next data set is CYP450 1A2 (Homo sapiens, UniProt P05177). Nature of the data set: CYP450 inhibition.
The target of another data set is CYP450 2C9 (Homo sapiens, UniProt P11712). The data set can be described thus: CYP450 inhibition. Format: in vitro ADME.
A further data set has as its target CYP450 2C19 (Homo sapiens, UniProt P33261). Nature of the data set: CYP450 inhibition. The format is in vitro ADME.
A further data set concerns the target CYP450 2B8 (Homo sapiens, UniProt P20813). The data set can be described thus: CYP450 inhibition.
Data set [2] in a line: Caco-2 Papp determination. Format: in vitro ADME, human.
For the next data set, the target named is CYP450 2D6 (Homo sapiens, UniProt P10635). Nature of the data set: CYP450 inhibition. The format is in vitro ADME.
A short description of the next data set: In vivo mouse PK. To be noted: iv dosing.
A short description of data set [3]: Clint determination. The format is in vitro ADME. To be noted: mouse, microsomes, pH 7.4, mouse microsomes, read-out: Clint (μL/min/mg) Mouse.
A short description of data set [4]: Clint determination. Format: in vitro ADME. To be noted: human, microsomes, pH 7.4, human microsomes, read-out: Clint (μL/min/mg) Human.
A short description of data set [5]: Clint determination. The format is in vitro ADME. Particulars: rat, microsomes, pH 7.4, rat microsomes, read-out: Clint (μL/min/mg) Rat.
Data set [6] can be described thus: Aqueous (thermodynamic) solubility. The format is physicochemical. To be noted: phosphate buffer pH 7.4.

CYP450 2C19, sequence (P33261 whole entry): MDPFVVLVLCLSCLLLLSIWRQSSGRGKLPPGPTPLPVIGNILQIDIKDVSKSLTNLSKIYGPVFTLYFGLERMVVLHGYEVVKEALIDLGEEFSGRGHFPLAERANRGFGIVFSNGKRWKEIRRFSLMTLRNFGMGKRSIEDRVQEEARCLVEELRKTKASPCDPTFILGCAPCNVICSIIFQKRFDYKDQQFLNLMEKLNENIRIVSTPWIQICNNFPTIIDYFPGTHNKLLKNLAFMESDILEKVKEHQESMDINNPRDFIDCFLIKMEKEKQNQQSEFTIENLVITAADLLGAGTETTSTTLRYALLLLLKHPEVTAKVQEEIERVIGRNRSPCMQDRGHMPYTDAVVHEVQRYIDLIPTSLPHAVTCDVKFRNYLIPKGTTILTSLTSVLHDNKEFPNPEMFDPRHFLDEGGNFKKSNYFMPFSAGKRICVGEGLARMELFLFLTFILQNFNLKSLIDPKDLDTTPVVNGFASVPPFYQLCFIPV
CYP450 2D6, sequence (P10635 whole entry): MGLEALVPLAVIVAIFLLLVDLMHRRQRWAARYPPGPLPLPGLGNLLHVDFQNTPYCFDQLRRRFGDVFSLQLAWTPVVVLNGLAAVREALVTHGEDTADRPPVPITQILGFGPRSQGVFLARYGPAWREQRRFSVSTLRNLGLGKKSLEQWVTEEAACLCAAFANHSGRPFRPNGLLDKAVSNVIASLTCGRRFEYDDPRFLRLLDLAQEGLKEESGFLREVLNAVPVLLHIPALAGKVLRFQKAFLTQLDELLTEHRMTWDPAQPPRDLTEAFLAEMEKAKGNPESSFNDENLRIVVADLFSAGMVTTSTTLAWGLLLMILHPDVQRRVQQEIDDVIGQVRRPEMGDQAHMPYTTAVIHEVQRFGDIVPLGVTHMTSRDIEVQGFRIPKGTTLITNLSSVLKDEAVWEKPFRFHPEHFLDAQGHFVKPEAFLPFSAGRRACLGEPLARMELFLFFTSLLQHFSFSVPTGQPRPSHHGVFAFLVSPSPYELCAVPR
CYP450 1A2, sequence (P05177 whole entry): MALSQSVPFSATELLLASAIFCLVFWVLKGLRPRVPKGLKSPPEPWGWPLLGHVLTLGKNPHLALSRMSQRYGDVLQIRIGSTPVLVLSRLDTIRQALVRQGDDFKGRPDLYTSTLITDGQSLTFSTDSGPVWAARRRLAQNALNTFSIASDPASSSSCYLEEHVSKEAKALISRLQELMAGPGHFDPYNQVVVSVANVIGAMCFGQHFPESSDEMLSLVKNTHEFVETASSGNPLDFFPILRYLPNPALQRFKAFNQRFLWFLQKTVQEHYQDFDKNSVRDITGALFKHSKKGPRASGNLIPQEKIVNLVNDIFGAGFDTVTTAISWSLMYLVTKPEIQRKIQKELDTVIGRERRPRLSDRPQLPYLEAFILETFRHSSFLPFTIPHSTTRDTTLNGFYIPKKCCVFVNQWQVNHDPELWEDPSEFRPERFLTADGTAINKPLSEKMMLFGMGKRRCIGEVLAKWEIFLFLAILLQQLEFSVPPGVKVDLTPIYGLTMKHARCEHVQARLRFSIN
CYP450 2B8, sequence (P20813 whole entry): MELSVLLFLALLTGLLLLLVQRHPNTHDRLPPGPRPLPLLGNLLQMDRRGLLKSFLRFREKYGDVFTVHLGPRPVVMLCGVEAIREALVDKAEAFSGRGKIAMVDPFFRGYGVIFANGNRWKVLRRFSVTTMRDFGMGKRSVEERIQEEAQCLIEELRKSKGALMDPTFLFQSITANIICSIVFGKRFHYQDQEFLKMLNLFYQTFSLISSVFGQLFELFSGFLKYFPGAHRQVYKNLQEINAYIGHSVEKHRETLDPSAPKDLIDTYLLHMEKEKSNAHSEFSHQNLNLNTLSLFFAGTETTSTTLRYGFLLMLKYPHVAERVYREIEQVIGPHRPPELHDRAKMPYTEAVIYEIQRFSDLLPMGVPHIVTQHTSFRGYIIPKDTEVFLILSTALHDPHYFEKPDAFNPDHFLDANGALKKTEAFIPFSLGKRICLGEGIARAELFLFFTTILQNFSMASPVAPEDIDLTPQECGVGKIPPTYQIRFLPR
CYP450 2C9, sequence (P11712 whole entry): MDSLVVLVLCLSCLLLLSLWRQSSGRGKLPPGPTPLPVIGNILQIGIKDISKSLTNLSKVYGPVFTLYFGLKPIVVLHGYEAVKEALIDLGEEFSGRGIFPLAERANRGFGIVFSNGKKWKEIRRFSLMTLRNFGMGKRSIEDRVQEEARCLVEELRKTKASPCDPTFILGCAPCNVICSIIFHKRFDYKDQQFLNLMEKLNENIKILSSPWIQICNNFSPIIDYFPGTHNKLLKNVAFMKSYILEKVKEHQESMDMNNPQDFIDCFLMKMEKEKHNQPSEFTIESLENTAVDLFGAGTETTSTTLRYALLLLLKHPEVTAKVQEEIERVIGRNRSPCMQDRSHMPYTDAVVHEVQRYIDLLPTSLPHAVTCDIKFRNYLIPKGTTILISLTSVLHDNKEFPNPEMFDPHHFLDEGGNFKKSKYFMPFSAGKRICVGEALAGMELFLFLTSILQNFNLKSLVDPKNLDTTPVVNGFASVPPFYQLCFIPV

`c1cc(N2CCCCC2)ccn1` [4-(piperidin-1-yl)pyridine]: the pKa in [1] was 9.42.

On to `NC(=O)C1CCN(c2c(Cl)cncc2Cl)CC1` [Compound 9, 1-(3,5-Dichloropyridin-4-yl)piperidine-4-carboxamide], for which the IC50 at CYP450 1A2, against CYP450 2C9, at CYP450 2C19, against CYP450 2B8 and on CYP450 2D6 was > 20 µM in each case. Besides, in [2], the “Caco-2 efflux (efflux ratio, ER)” value is given as “no efflux”. Moreover, in [2] (human, Caco-2, 1 μM, pH 7.4), the Papp at 2 h, 1 μM came to 36 ×10⁻⁶ cm/s.

Consider `NC(=O)C1CCN(c2c(Cl)cncc2-c2ccc(N3CCOCC3)cc2)CC1` [Compound 38, 1-(3-Chloro-5-(4-morpholin-4-ylphenyl)pyridin-4-yl)piperidine-4-carboxamide], for which the in vivo clearance result in the data set “In vivo mouse PK” is listed as “greater than liver blood flow”.

Regarding `O=C1NCCC12CCN(c1c(Cl)cncc1-c1ccc(N3CCOCC3)cc1)C2` (centres unmarked) [Compound 52], the microsomal CLint at 1 μM in the data set “Clint determination [3]” is 827 µL/min/mg; in the data set “Clint determination [4]”, 335 µL/min/mg.

As to `O=C1CC2(CCN(c3c(Cl)cncc3-c3ccc(N4CCOCC4)cc3)CC2)C(=O)N1` [Compound 54, 8-(3-Chloro-5-(4-morpholin-4-ylphenyl)pyridin-4-yl)-2,8-diazaspiro[4.5]decan-1,3-dione], the microsomal CLint at 1 μM in “Clint determination [3]” was 54 µL/min/mg; in “Clint determination [5]”, 23 µL/min/mg; in the data set “Clint determination [4]” it was 67 µL/min/mg.

`O=C1NCCC12CCN(c1c(Cl)cncc1-c1ccc(N3CCCCC3)cc1)CC2` [Compound 65]: the microsomal CLint at 1 μM in the data set “Clint determination [3]” was > 1000 µL/min/mg.

As to `O=C1NCCC12CCN(c1c(Cl)cncc1-c1ccc(-c3ccncc3)cc1)CC2` [Compound 69], the microsomal CLint at 1 μM in the data set “Clint determination [4]” stood at 100 µL/min/mg.

For the molecule `Cn1cc(-c2ccc(-c3cncc(Cl)c3N3CCC4(CC3)CC(=O)NC4=O)cc2)cn1` [Compound 81, 8-(3-Chloro-5-(4-(1-methyl-1H-pyrazol-4-yl)phenyl)pyridin-4-yl)-2,8-diazaspiro[4.5]decane-1,3-dione], the solubility in data set [6] is < 1 µg/mL.

The pKa is the pH at which an ionisable group is half protonated. A low value points to a group that gives up its proton readily. The term IC50 denotes the concentration needed to halve the response being measured. Low values mean higher potency, high ones lower potency. A word on the Papp: it is a coefficient for how fast a substance crosses the barrier. In general, solubility refers to the dissolved amount per volume that the medium holds.
